Active and inactive are the calls of the source. The calls are words filed in the database; no cut-off is given here.
Experiments:
BXPC-3 [1] = test: Induction of apoptosis in human BxPC3 cells assessed as accumulation at sub-G0/G1 phase at 20 uM after 72 hrs by propidium iodide staining based flow cytometry (reference value: 3.4%); assay type: functional
BXPC-3 [2] = test: Induction of apoptosis in human BxPC3 cells assessed as accumulation at sub-G0/G1 phase harboring pSFFV-Bcl-XL at 20 uM after 72 hrs by propidium iodide staining based flow cytometry (reference value: 1.3%); assay type: functional
PANC-1 [3] = test: Induction of apoptosis in human PANC1 cells assessed as accumulation at sub-G0/G1 phase at 20 uM after 24 hrs by propidium iodide staining based flow cytometry (reference value: 0.6 to 0.7%); assay type: functional
PANC-1 [4] = test: Induction of apoptosis in human PANC1 cells assessed as accumulation at sub-G0/G1 phase at 20 uM after 48 hrs by propidium iodide staining based flow cytometry (reference value: 0.2 to 2.9%); assay type: functional
PANC-1 [5] = test: Induction of apoptosis in human PANC1 cells assessed as accumulation at sub-G0/G1 phase at 20 uM after 72 hrs by propidium iodide staining based flow cytometry (reference value: 1.6 to 3.2%); assay type: functional
PK9 [6] = test: Induction of apoptosis in human PK9 cells assessed as accumulation at sub-G0/G1 phase at 20 uM after 48 hrs by propidium iodide staining based flow cytometry (reference value: 3.8%); assay type: functional
PK9 [7] = test: Induction of apoptosis in human PK9 cells assessed as accumulation at sub-G0/G1 phase at 20 uM after 72 hrs by propidium iodide staining based flow cytometry (reference value: 4%); assay type: functional
Fibroblast [8] = test: Induction of apoptosis in human primary fibroblasts at 20 uM after 72 hrs by propidium iodide staining based flow cytometry (reference value: 6.7%); assay type: cell-based
[9] = Induction of apoptosis in HPNE cells assessed as accumulation at sub-G0/G1 phase at 20 uM after 24 hrs by propidium iodide staining based flow cytometry (reference value: 0.6%); assay type: cell-based; conditions: human
[10] = Induction of apoptosis in HPNE cells assessed as accumulation at sub-G0/G1 phase at 20 uM after 72 hrs by propidium iodide staining based flow cytometry (reference value: 6.6%); assay type: cell-based; conditions: human
PANC-1 [11] = test: Induction of apoptosis in human PANC1 cells assessed as accumulation at sub-G0/G1 phase at 10 uM after 72 hrs by propidium iodide staining based flow cytometry (reference value: 1.6 to 3.2%); assay type: functional
BXPC-3 [12] = test: Induction of apoptosis in human BxPC3 cells assessed as accumulation at sub-G0/G1 phase at 10 uM after 24 hrs by propidium iodide staining based flow cytometry (reference value: 1.8%); assay type: functional
BXPC-3 [13] = test: Induction of apoptosis in human BxPC3 cells assessed as accumulation at sub-G0/G1 phase at 10 uM after 48 hrs by propidium iodide staining based flow cytometry (reference value: 2.8%); assay type: functional
BXPC-3 [14] = test: Induction of apoptosis in human BxPC3 cells harboring pSFFV-Bcl-XL assessed as accumulation at sub-G0/G1 phase at 10 uM after 48 hrs by propidium iodide staining based flow cytometry (reference value: 1.9%); assay type: functional
BXPC-3 [15] = test: Induction of apoptosis in human BxPC3 cells harboring pSFFV-Bcl-XL assessed as accumulation at sub-G0/G1 phase at 10 uM after 72 hrs by propidium iodide staining based flow cytometry (reference value: 2%); assay type: functional
PK9 [16] = test: Induction of apoptosis in human PK9 cells assessed as accumulation at sub-G0/G1 phase at 10 uM after 24 hrs by propidium iodide staining based flow cytometry (reference value: 2.2%); assay type: functional
PK9 [17] = test: Induction of apoptosis in human PK9 cells assessed as accumulation at sub-G0/G1 phase at 10 uM after 48 hrs by propidium iodide staining based flow cytometry (reference value: 3.8%); assay type: functional
PK9 [18] = test: Induction of apoptosis in human PK9 cells assessed as accumulation at sub-G0/G1 phase at 10 uM after 72 hrs by propidium iodide staining based flow cytometry (reference value: 4%); assay type: functional
Fibroblast [19] = test: Induction of apoptosis in human primary fibroblasts assessed as accumulation at sub-G0/G1 phase at 10 uM after 24 hrs by propidium iodide staining based flow cytometry (reference value: 4.8%); assay type: cell-based
Fibroblast [20] = test: Induction of apoptosis in human primary fibroblasts assessed as accumulation at sub-G0/G1 phase at 10 uM after 48 hrs by propidium iodide staining based flow cytometry (reference value: 6.1%); assay type: cell-based
[21] = Induction of apoptosis in HPNE cells assessed as accumulation at sub-G0/G1 phase at 10 uM after 48 hrs by propidium iodide staining based flow cytometry (reference value: 0.7%); assay type: cell-based; conditions: human
[22] = Induction of apoptosis in HPNE cells assessed as accumulation at sub-G0/G1 phase at 10 uM after 72 hrs by propidium iodide staining based flow cytometry (reference value: 6.6%); assay type: cell-based; conditions: human
MIA PaCa-2 [23] = test: Induction of apoptosis in human MIAPaCa2 cells assessed as live cells at 20 uM after 24 hrs by Annexin V-FITC/propidium iodide staining based flow cytometry (reference value: 86.79%); assay type: functional
MIA PaCa-2 [24] = test: Induction of apoptosis in human MIAPaCa2 cells assessed as early apoptotic cells at 20 uM after 24 hrs by Annexin V-FITC/propidium iodide staining based flow cytometry (reference value: 5.16%); assay type: functional
MIA PaCa-2 [25] = test: Induction of apoptosis in human MIAPaCa2 cells assessed as necrotic cells at 20 uM after 24 hrs by Annexin V-FITC/propidium iodide staining based flow cytometry (reference value: 0.63%); assay type: functional
MIA PaCa-2 [26] = test: Induction of apoptosis in human MIAPaCa2 cells assessed as live cells at 20 uM after 48 hrs by Annexin V-FITC/propidium iodide staining based flow cytometry (reference value: 86.79%); assay type: functional
MIA PaCa-2 [27] = test: Induction of apoptosis in human MIAPaCa2 cells assessed as early apoptotic cells at 20 uM after 48 hrs by Annexin V-FITC/propidium iodide staining based flow cytometry (reference value: 5.16%); assay type: functional
MIA PaCa-2 [28] = test: Induction of apoptosis in human MIAPaCa2 cells assessed as necrotic cells at 20 uM after 48 hrs by Annexin V-FITC/propidium iodide staining based flow cytometry (reference value: 0.63%); assay type: functional
MIA PaCa-2 [29] = test: Induction of apoptosis in human MIAPaCa2 cells assessed as increase in cleaved PARP protein expression at 20 uM after 15 to 48 hrs by Western blot analysis; assay type: functional, cell-based
BXPC-3 [30] = test: Induction of apoptosis in human BxPC3 cells assessed as increase in cleaved PARP protein expression at 20 uM after 15 to 48 hrs by Western blot analysis; assay type: functional, cell-based
MIA PaCa-2 [31] = test: Induction of autophagy in human MIAPaCa2 cells assessed as increase in LC3-2 protein expression at 20 uM after 15 to 48 hrs by Western blot analysis; assay type: functional, cell-based
BXPC-3 [32] = test: Induction of apoptosis in human BxPC3 cells assessed as accumulation at sub-G0/G1 phase at 20 uM after 48 hrs in presence of autophagy inhibitor bafilomycin A1 by propidium iodide staining based flow cytometry; assay type: functional, cell-based
BXPC-3 [33] = test: Induction of apoptosis in human BxPC3 cells assessed as accumulation at sub-G0/G1 phase at 20 uM after 48 hrs in presence of autophagy inhibitor chloroquine by propidium iodide staining based flow cytometry; assay type: functional, cell-based

SMILES	Activity (BXPC-3 [1]) [%]	Activity (BXPC-3 [2]) [%]	Activity (PANC-1 [3]) [%]	Activity (PANC-1 [4]) [%]	Activity (PANC-1 [5]) [%]	Activity (PK9 [6]) [%]	Activity (PK9 [7]) [%]	Activity (Fibroblast [8]) [%]	Activity [9] [%]	Activity [10] [%]	Activity (PANC-1 [11]) [%]	Activity (BXPC-3 [12]) [%]	Activity (BXPC-3 [13]) [%]	Activity (BXPC-3 [14]) [%]	Activity (BXPC-3 [15]) [%]	Activity (PK9 [16]) [%]	Activity (PK9 [17]) [%]	Activity (PK9 [18]) [%]	Activity (Fibroblast [19]) [%]	Activity (Fibroblast [20]) [%]	further results
CCCCCC/C=C\CCCCCCCCOC[C@H]1NC[C@H](O)[C@@H]1O	46.8	8.6	5.3	14.5	27.1	20	28.6	18.7	70.6	81.7	18.6	9.6	12.8	3.7	4.1	3.8	6.1	6.5	7.9	8.7	Activity [21]: 30.8%; Activity [22]: 42.1%; Activity (MIA PaCa-2 [23]): 76.71%; Activity (MIA PaCa-2 [24]): 11.88%; Activity (MIA PaCa-2 [25]): 0.71%; Activity (MIA PaCa-2 [26]): 4.4%; Activity (MIA PaCa-2 [27]): 47.46%; Activity (MIA PaCa-2 [28]): 3.44%; Activity (MIA PaCa-2 [29]): Active; Activity (BXPC-3 [30]): Active; Activity (MIA PaCa-2 [31]): Active; Activity (BXPC-3 [32]): Active; Activity (BXPC-3 [33]): Active
CCCCCCCCCCCCCCCCCCOCC(COP(=O)([O-])OCC[N+](C)(C)C)OC (stereo unspecified) [EDELFOSINE]	39.2	2.8	8.46	16.2	23.2	11.2	15.6	9.8	2.8	8.2	15.8	14.2	16.5	3.7	2.6	3.8	8	10.3	5.2	7.2	Activity [21]: 3.5%; Activity [22]: 4.8%; Activity (MIA PaCa-2 [23]): 11.51%; Activity (MIA PaCa-2 [24]): 28.49%; Activity (MIA PaCa-2 [25]): 7.47%; Activity (MIA PaCa-2 [26]): 2.49%; Activity (MIA PaCa-2 [27]): 49.78%; Activity (MIA PaCa-2 [28]): 1.79%; Activity (MIA PaCa-2 [29]): Active; Activity (BXPC-3 [30]): Active; Activity (MIA PaCa-2 [31]): Active; Activity (BXPC-3 [32]): Active; Activity (BXPC-3 [33]): Active
